# Assay results from the kinase profiling compilation of Christmann-Franck et al. (2016).
# Experiments:
# Assay in all cases: radiometric filter-binding kinase assay, Kinase HotSpot
# Conditions in all cases: compound 0.5 µM; ATP 10 µM
# CAMKK2 (human) = CAMKK2 (human) (UniProt Q96RR4)
# PAK4 (human) = PAK4 (human) (UniProt O96013)
# BRSK2 (human) = BRSK2 (human) (UniProt Q8IWQ3)
# FRK (human) = FRK (human) (UniProt P42685)
# MINK1 (human) = MINK1 (human) (UniProt Q8N4C8)
# BLK (human) = BLK (human) (UniProt P51451)
# RPS6KA3 KD1 KD2 (human) = RPS6KA3 KD1 KD2 (human) (UniProt P51812)
# PNCK (human) = PNCK (human) (UniProt Q6P2M8)
# CAMKK1 (human) = CAMKK1 (human) (UniProt Q8N5S9)
# CAMKK1 (human), sequence (Q8N5S9 whole entry, looked up): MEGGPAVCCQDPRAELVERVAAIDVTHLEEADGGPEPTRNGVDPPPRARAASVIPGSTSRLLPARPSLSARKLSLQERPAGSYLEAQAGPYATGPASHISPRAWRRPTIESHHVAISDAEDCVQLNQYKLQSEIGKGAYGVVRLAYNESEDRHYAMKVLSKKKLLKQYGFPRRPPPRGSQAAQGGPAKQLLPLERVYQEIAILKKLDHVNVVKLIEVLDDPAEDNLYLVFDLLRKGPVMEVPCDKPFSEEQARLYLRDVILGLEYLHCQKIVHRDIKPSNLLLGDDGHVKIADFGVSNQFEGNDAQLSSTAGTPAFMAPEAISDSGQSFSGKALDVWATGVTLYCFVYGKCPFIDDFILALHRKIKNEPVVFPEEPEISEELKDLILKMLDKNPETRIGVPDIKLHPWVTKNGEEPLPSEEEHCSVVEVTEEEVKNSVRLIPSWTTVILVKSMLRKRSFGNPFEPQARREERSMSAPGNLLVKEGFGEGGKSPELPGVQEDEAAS
# PRKD1 (human) = PRKD1 (human) (UniProt Q15139)
# ACVR1 (human) = ACVR1 (human) (UniProt Q04771)
# NTRK2 (human) = NTRK2 (human) (UniProt Q16620)
# INSR (human) = INSR (human) (UniProt P06213)
# WNK3 (human) = WNK3 (human) (UniProt Q9BYP7)
# DYRK1A (human) = DYRK1A (human) (UniProt Q13627)
# DYRK4 (human) = DYRK4 (human) (UniProt Q9NR20)
# MAPKAPK2 (human) = MAPKAPK2 (human) (UniProt P49137)
# BMX (human) = BMX (human) (UniProt P51813)
# DCLK2 (human) = DCLK2 (human) (UniProt Q8N568)
# WNK2 (human) = WNK2 (human) (UniProt Q9Y3S1)
# NUAK1 (human) = NUAK1 (human) (UniProt O60285)
# FLT3 (human) = FLT3 (human) (UniProt P36888)
# FLT3 (human), sequence (P36888 whole entry, looked up): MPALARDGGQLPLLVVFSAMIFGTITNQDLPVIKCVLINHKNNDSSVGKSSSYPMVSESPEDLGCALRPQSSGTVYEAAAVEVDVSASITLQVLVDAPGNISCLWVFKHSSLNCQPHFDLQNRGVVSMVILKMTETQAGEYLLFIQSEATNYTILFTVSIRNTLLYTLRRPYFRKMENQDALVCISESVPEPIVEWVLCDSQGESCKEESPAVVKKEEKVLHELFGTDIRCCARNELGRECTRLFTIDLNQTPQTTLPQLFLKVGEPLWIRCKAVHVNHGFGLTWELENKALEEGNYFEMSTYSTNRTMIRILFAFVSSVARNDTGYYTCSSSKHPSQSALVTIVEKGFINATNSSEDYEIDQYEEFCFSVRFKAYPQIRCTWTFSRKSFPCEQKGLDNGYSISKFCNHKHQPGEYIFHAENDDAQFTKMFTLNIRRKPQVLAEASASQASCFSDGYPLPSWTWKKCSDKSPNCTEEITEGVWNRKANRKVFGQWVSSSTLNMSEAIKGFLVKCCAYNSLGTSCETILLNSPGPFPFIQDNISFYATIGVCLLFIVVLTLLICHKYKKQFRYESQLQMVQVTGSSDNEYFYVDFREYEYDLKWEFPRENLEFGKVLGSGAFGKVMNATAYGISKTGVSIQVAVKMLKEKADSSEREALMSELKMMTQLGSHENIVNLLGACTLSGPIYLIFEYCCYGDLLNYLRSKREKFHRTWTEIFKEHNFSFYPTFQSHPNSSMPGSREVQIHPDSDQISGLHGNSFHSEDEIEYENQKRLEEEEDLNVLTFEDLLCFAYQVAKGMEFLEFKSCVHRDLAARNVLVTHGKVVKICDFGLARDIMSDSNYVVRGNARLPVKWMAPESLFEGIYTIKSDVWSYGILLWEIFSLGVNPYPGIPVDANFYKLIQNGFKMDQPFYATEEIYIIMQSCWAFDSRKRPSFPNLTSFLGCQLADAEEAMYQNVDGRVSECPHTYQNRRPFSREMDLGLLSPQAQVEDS
# FGFR3 (human) = FGFR3 (human) (UniProt P22607)
# PRKCI (human) = PRKCI (human) (UniProt P41743)
# MARK4 (human) = MARK4 (human) (UniProt Q96L34)
# MARK4 (human), sequence (Q96L34 whole entry, looked up): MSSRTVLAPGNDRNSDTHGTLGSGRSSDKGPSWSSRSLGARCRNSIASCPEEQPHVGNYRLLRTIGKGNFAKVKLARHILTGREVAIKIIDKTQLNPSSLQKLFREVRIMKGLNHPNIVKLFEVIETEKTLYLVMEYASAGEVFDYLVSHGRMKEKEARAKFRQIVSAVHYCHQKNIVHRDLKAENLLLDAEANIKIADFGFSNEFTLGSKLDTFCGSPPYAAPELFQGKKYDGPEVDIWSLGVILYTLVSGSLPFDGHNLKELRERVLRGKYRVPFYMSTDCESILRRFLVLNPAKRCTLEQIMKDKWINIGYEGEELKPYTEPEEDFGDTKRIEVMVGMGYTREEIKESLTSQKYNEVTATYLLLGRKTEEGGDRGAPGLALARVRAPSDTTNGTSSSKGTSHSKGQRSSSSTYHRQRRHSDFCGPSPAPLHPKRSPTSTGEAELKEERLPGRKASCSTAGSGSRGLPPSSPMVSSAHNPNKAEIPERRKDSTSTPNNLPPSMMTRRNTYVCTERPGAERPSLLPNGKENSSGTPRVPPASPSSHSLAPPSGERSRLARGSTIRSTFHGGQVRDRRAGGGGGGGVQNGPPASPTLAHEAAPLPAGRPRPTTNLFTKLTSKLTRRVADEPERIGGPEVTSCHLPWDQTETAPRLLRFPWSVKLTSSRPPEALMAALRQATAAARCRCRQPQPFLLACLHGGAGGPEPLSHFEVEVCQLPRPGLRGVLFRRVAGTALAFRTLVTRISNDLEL
# EPHB1 (human) = EPHB1 (human) (UniProt P54762)
# EPHA2 (human) = EPHA2 (human) (UniProt P29317)
# MAP3K10 (human) = MAP3K10 (human) (UniProt Q02779)
# GRK6 (human) = GRK6 (human) (UniProt P43250)
# CLK1 (human) = CLK1 (human) (UniProt P49759)
# SYK (human) = SYK (human) (UniProt P43405)
# EPHA4 (human) = EPHA4 (human) (UniProt P54764)
# CDK2 CCNE1 (human) = CDK2 CCNE1 (human) (UniProt P24941+P24864)
# CDK2 CCNE1 (human), sequence (P24864 whole entry, looked up, other chains not shown): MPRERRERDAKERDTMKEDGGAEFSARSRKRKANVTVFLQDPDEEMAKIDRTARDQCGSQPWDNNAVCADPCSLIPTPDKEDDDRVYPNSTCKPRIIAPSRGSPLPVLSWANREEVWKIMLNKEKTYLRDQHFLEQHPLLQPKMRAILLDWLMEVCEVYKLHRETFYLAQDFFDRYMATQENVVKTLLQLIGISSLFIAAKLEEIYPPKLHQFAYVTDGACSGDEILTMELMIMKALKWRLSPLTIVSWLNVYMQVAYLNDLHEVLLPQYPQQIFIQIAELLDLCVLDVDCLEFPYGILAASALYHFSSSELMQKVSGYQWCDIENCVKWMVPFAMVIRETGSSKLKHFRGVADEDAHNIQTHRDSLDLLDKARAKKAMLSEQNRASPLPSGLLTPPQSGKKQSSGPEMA
# EPHA3 (human) = EPHA3 (human) (UniProt P29320)
# TGFBR2 (human) = TGFBR2 (human) (UniProt P37173)
# MERTK (human) = MERTK (human) (UniProt Q12866)
# KDR (human) = KDR (human) (UniProt P35968)
# AURKB (human) = AURKB (human) (UniProt Q96GD4)
# AURKB (human), sequence (Q96GD4 whole entry, looked up): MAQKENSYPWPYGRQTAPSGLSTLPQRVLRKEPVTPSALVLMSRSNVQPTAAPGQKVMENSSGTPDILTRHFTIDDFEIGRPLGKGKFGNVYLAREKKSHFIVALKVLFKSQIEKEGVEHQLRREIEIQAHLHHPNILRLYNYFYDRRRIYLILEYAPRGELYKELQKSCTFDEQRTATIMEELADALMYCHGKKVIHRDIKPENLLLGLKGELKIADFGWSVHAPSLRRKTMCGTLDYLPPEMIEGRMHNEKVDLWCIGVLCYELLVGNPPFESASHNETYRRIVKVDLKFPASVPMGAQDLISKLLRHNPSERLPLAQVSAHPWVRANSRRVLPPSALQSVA
# LIMK1 (human) = LIMK1 (human) (UniProt P53667)
# PAK6 (human) = PAK6 (human) (UniProt Q9NQU5)
# PTK6 (human) = PTK6 (human) (UniProt Q13882)
# PTK6 (human), sequence (Q13882 whole entry, looked up): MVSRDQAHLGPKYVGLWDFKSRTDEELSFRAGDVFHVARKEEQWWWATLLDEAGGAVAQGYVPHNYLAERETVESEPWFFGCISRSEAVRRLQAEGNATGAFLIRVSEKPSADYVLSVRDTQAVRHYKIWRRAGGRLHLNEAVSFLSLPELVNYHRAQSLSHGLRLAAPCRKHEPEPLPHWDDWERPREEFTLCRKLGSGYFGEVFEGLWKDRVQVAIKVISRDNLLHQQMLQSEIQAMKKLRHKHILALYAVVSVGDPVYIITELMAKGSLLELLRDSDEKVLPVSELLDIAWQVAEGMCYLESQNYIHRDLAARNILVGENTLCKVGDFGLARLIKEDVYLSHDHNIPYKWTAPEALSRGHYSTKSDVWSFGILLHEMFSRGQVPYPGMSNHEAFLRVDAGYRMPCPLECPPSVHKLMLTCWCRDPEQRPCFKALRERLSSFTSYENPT
# PIM3 (human) = PIM3 (human) (UniProt Q86V86)
# MINK1 (human), sequence (Q8N4C8 whole entry, looked up): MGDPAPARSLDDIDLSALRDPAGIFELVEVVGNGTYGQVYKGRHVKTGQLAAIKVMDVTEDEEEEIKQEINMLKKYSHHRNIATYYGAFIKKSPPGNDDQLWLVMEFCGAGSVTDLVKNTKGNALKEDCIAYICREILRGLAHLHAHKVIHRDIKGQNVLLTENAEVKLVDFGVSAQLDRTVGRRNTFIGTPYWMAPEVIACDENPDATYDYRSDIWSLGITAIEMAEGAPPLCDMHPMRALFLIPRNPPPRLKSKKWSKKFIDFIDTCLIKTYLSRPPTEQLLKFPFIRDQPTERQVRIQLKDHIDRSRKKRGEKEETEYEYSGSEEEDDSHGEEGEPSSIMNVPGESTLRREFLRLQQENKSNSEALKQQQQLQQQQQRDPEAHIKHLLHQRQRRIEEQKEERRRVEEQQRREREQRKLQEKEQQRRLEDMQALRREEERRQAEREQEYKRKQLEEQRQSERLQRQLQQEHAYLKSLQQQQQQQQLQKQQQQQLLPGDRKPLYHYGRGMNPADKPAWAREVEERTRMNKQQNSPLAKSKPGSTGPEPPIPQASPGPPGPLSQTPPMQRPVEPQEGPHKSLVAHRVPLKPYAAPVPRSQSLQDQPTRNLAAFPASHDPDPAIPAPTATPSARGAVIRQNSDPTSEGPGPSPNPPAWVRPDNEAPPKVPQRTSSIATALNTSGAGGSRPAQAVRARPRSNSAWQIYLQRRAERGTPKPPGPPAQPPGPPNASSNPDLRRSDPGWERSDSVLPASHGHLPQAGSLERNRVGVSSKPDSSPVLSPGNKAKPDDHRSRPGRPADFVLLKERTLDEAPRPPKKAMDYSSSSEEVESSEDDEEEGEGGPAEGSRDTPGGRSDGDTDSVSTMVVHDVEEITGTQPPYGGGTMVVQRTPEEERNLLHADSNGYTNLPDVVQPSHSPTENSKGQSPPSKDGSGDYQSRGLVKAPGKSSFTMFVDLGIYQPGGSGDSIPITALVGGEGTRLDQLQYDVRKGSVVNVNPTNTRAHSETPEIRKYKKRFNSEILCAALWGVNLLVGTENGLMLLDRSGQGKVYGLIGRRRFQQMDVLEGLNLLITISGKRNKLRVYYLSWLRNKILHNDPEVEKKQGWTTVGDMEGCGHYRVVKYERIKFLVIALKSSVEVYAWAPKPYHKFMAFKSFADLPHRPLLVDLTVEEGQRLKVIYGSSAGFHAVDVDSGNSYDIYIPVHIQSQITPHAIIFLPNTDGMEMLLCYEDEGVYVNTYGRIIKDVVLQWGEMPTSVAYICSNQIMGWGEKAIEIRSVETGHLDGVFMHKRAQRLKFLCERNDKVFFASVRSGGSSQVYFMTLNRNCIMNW
structure (smiles),measurement,setting,value
COc1ccc(OC)c2c(=S)c3ccccc3[nH]c12,residual activity,CAMKK2 (human),108%
same,residual activity,PAK4 (human),102%
same,residual activity,BRSK2 (human),92.5%
same,residual activity,FRK (human),88.8%
same,residual activity,MINK1 (human),95.9%
same,residual activity,BLK (human),96.5%
same,residual activity,RPS6KA3 KD1 KD2 (human),109%
same,residual activity,PNCK (human),97.3%
same,residual activity,CAMKK1 (human),108%
same,residual activity,PRKD1 (human),99.8%
same,residual activity,ACVR1 (human),99.2%
same,residual activity,NTRK2 (human),94%
same,residual activity,INSR (human),102%
same,residual activity,WNK3 (human),99.1%
same,residual activity,DYRK1A (human),103%
same,residual activity,DYRK4 (human),107%
same,residual activity,MAPKAPK2 (human),94.6%
same,residual activity,BMX (human),105%
same,residual activity,DCLK2 (human),94.6%
same,residual activity,WNK2 (human),89.8%
same,residual activity,NUAK1 (human),99.3%
same,residual activity,FLT3 (human),71%
same,residual activity,FGFR3 (human),94.9%
same,residual activity,PRKCI (human),99.3%
same,residual activity,MARK4 (human),95.7%
same,residual activity,EPHB1 (human),87.1%
same,residual activity,EPHA2 (human),100%
same,residual activity,MAP3K10 (human),92.8%
same,residual activity,GRK6 (human),97.2%
same,residual activity,CLK1 (human),98.4%
same,residual activity,SYK (human),100%
same,residual activity,EPHA4 (human),88.8%
same,residual activity,CDK2 CCNE1 (human),77.9%
same,residual activity,EPHA3 (human),94.9%
same,residual activity,TGFBR2 (human),109%
same,residual activity,MERTK (human),86.7%
same,residual activity,KDR (human),108%
same,residual activity,AURKB (human),89.6%
same,residual activity,LIMK1 (human),108%
same,residual activity,PAK6 (human),112%
same,residual activity,PTK6 (human),84%
same,residual activity,PIM3 (human),93.1%
CC(=O)O/N=C1\C(=C2\C(=O)Nc3cc(Br)ccc32)Nc2ccccc21,residual activity,CAMKK2 (human),102%
same,residual activity,PAK4 (human),92.7%
same,residual activity,BRSK2 (human),43.4%
same,residual activity,FRK (human),51.2%
same,residual activity,MINK1 (human),76.1%
same,residual activity,BLK (human),25.6%
same,residual activity,RPS6KA3 KD1 KD2 (human),91.9%
same,residual activity,PNCK (human),96.3%
same,residual activity,CAMKK1 (human),72.7%
same,residual activity,PRKD1 (human),82.1%
same,residual activity,ACVR1 (human),102%
same,residual activity,NTRK2 (human),38.4%
same,residual activity,INSR (human),94.8%
same,residual activity,WNK3 (human),93%
same,residual activity,DYRK1A (human),111%
same,residual activity,DYRK4 (human),96.7%
same,residual activity,MAPKAPK2 (human),109%
same,residual activity,BMX (human),67.2%
same,residual activity,DCLK2 (human),90.2%
same,residual activity,WNK2 (human),98.6%
same,residual activity,NUAK1 (human),49.4%
same,residual activity,FLT3 (human),21.6%
same,residual activity,FGFR3 (human),46.5%
same,residual activity,PRKCI (human),74.3%
same,residual activity,MARK4 (human),77.6%
same,residual activity,EPHB1 (human),99.9%
same,residual activity,EPHA2 (human),95.8%
same,residual activity,MAP3K10 (human),92.3%
same,residual activity,GRK6 (human),88.5%
same,residual activity,CLK1 (human),83.3%
same,residual activity,SYK (human),88.3%
same,residual activity,EPHA4 (human),87.6%
same,residual activity,CDK2 CCNE1 (human),24.7%
same,residual activity,EPHA3 (human),88.2%
same,residual activity,TGFBR2 (human),132%
same,residual activity,MERTK (human),77%
same,residual activity,KDR (human),74.2%
same,residual activity,AURKB (human),81%
same,residual activity,LIMK1 (human),69.7%
same,residual activity,PAK6 (human),74.8%
same,residual activity,PTK6 (human),91.2%
same,residual activity,PIM3 (human),54.2%
Cn1nc2c3c(cccc31)C(=O)c1ccccc1-2,residual activity,CAMKK2 (human),74.9%
same,residual activity,PAK4 (human),90.4%
same,residual activity,BRSK2 (human),96.4%
same,residual activity,FRK (human),94.3%
same,residual activity,MINK1 (human),92.3%
same,residual activity,BLK (human),106%
same,residual activity,RPS6KA3 KD1 KD2 (human),97.3%
same,residual activity,PNCK (human),101%
same,residual activity,CAMKK1 (human),102%
same,residual activity,PRKD1 (human),69.3%
same,residual activity,ACVR1 (human),110%
same,residual activity,NTRK2 (human),84%
same,residual activity,INSR (human),99.5%
same,residual activity,WNK3 (human),92%
same,residual activity,DYRK1A (human),94.1%
same,residual activity,DYRK4 (human),91.2%
same,residual activity,MAPKAPK2 (human),102%
same,residual activity,BMX (human),101%
same,residual activity,DCLK2 (human),94.2%
same,residual activity,WNK2 (human),104%
same,residual activity,NUAK1 (human),46.2%
same,residual activity,FLT3 (human),59.3%
same,residual activity,FGFR3 (human),95.9%
same,residual activity,PRKCI (human),98.5%
same,residual activity,MARK4 (human),91.1%
same,residual activity,EPHB1 (human),94.6%
same,residual activity,EPHA2 (human),104%
same,residual activity,MAP3K10 (human),91.4%
same,residual activity,GRK6 (human),89.2%
same,residual activity,CLK1 (human),92.7%
same,residual activity,SYK (human),94.8%
same,residual activity,EPHA4 (human),104%
same,residual activity,CDK2 CCNE1 (human),89.4%
same,residual activity,EPHA3 (human),93.5%
same,residual activity,TGFBR2 (human),94.9%
same,residual activity,MERTK (human),95.9%
same,residual activity,KDR (human),101%
same,residual activity,AURKB (human),83.5%
same,residual activity,LIMK1 (human),97.1%
same,residual activity,PAK6 (human),98.6%
same,residual activity,PTK6 (human),91.8%
same,residual activity,PIM3 (human),76.8%
O=C1Nc2ccccc2/C1=C1\Nc2ccccc2\C1=N/O,residual activity,CAMKK2 (human),66.8%
same,residual activity,PAK4 (human),77.1%
same,residual activity,BRSK2 (human),28%
same,residual activity,FRK (human),73.3%
same,residual activity,MINK1 (human),50.2%
same,residual activity,BLK (human),75.1%
same,residual activity,RPS6KA3 KD1 KD2 (human),61.4%
same,residual activity,PNCK (human),106%
same,residual activity,CAMKK1 (human),53.6%
same,residual activity,PRKD1 (human),85%
same,residual activity,ACVR1 (human),112%
same,residual activity,NTRK2 (human),4.08%
same,residual activity,INSR (human),66.8%
same,residual activity,WNK3 (human),89.4%
same,residual activity,DYRK1A (human),105%
same,residual activity,DYRK4 (human),96.8%
same,residual activity,MAPKAPK2 (human),105%
same,residual activity,BMX (human),80.1%
same,residual activity,DCLK2 (human),88.5%
same,residual activity,WNK2 (human),99.8%
same,residual activity,NUAK1 (human),8.89%
same,residual activity,FLT3 (human),2.16%
same,residual activity,FGFR3 (human),70.4%
same,residual activity,PRKCI (human),92.2%
same,residual activity,MARK4 (human),56.2%
same,residual activity,EPHB1 (human),86.2%
same,residual activity,EPHA2 (human),84.3%
same,residual activity,MAP3K10 (human),95.2%
same,residual activity,GRK6 (human),89.4%
same,residual activity,CLK1 (human),90.9%
same,residual activity,SYK (human),58.5%
same,residual activity,EPHA4 (human),89.4%
same,residual activity,CDK2 CCNE1 (human),31.3%
same,residual activity,EPHA3 (human),92%
same,residual activity,TGFBR2 (human),113%
same,residual activity,MERTK (human),82.2%
same,residual activity,KDR (human),72.9%
same,residual activity,AURKB (human),49.6%
same,residual activity,LIMK1 (human),65.9%
same,residual activity,PAK6 (human),94.4%
same,residual activity,PTK6 (human),97.2%
same,residual activity,PIM3 (human),73.6%
